How the values were obtained:
[1] = Thermal stability of ICM (ICG5 aqueous solution heated at 120° C.); format: physicochemical; settings: for Degree of coloring / Purity: 5% (w/v) aqueous solution, 120° C.; for Purity: HPLC
Protocol: (§1) ICG5, prepared from soluble starch by the method in Experiment 11 and purified to give a purity of 100% by the method in Experiment 1, was used as material. An aqueous ICG5 solution with a concentration of 5% (w/v) was prepared by dissolving ICG5 in deionized water. Then, 8 ml each of the resulting solution was pored into a glass tube, sealed closely, and then heated at 120° C. for 30 to 90 min. After cooling the solution, the degree of coloring of the solution was measured. Further, the purity of ICG5 in the solution was measured by HPLC. The degree of coloring was defined as an absorbance at 480 nm using a 1 cm-cell.

[2] = target: T1, salivary α-amylase (Homo sapiens, UniProt P0DUB6)
T1 sequence (P0DUB6 16-511): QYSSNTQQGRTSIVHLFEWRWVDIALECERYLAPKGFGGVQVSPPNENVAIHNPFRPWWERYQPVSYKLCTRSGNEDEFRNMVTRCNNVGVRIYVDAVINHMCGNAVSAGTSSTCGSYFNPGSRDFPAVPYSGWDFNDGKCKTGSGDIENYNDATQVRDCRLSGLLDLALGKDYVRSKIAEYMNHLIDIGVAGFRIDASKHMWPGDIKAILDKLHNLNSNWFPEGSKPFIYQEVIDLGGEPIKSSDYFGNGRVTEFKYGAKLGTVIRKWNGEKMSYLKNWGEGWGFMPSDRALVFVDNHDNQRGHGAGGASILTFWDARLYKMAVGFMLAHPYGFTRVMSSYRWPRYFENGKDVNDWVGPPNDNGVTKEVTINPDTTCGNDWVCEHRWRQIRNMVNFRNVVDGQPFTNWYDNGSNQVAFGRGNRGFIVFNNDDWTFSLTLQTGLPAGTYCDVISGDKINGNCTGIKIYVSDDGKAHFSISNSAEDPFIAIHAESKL
Description: (§2) 43, 23-29 (1990), the digestibility of ICM by salivary α-amylase, artificial gastric juice, pancreas amylase, and small intestinal enzymes were investigated using ICG5, used in Experiment 15. […] In Table 18, the digestion (%) means a value calculated by the formula: Digestion (%)=(The amount of reducing saccharides/The amount of the total saccharides)×100 , in respective reaction described above.

[3] = system: mice; assay: Acute toxicity test, oral, mice; format: in vivo
Description: By using mice, ICG5 used in Experiment 15 was orally administrated to the mice for its acute toxicity test. […] Though not so accurate, the value of LD50 of ICG5 was 5 g/kg-mouse weight or higher.

[4] = pH stability of ICM (ICG5 in buffers pH 2 to 10 heated at 100° C. for 24 hours); format: physicochemical; settings: for Degree of coloring / Purity: 4% (w/v), 100° C. for 24 hours
Protocol: as §1
ICG5, used in Experiment 15, was dissolved in various buffers to make into nine kinds of aqueous solutions containing 4% (w/v) of ICG5, adjusted to pH 2 to 10, as shown in Table 14. Eight milliliters of each solution was put in a glass tube, sealed and then heated at 100° C. for 24 hours. After cooling the solution, the degree of coloring and the purity of ICG5 of each solution were measured in the same manner in Experiment 15.

[5] = system: small intestinal enzymes
Description: as §2

[6] = Amino-carbonyl reaction with polypeptone; format: physicochemical; settings: with 5% (w/v) polypeptone, 120° C., blank subtracted
Protocol: ICG5 used in Experiment 15 and commercially available polypeptone, commercialized by Nihon Pharmaceutical Co., Ltd., Tokyo, Japan, were dissolved in deionized water to make into an aqueous solution containing […] and 5% (w/v) of polypeptone. As a control, an aqueous solution containing α-CD and polypeptone was prepared in the same manner using α-CD in place of ICG5. Four milliliters each of the solution was put in a glass tube, sealed and then heated at 120° C. for 30, 60, or 90 min. After cooling the solutions in ambient temperature, the degrees of coloring of the solutions were measured to estimate the degree of amino-carbonyl reaction. As a blank test, a solution containing polypeptone only was heated in the same manner. The degree of coloring was defined as an absorbance at 480 nm using a 1 cm-cell after subtracting the absorbance of the blank test.

[7] = Amino-carbonyl reaction with glycine; format: physicochemical; settings: 5% (w/v) saccharide + 1% (w/v) glycine, pH 7.0, 120° C., blank subtracted
Protocol: ICG5, used in Experiment 15 and commercially available super high-grade glycine were dissolved in deionized water, and then admixed with phosphate buffer to make into an aqueous ICG5 solution containing 5% (w/v) of ICG5 and 1% (w/v) glycine, adjusted to pH 7.0. As a control, an aqueous α-cyclodextrin (α-CD) solution containing α-CD and glycine was prepared in the same manner using α-CD in place of ICG5. Four milliliters each of the solution was put in a glass tube, sealed and then heated at 120° C. for 30, 60, or 90 min. After cooling the solutions in ambient temperature, the degrees of coloring of the solutions were measured to estimate the degree of amino-carbonyl reaction. As a blank test, a solution containing glycine only was heated in the same manner. The degree of coloring was defined as an absorbance at 480 nm using a 1 cm-cell after subtracting the absorbance of the blank test.

[8] = system: pancreas α-amylase
Description: as §2

OCC1OC2OC3C(CO)OC(OC4C(CO)OC(OC5C(CO)OC(OCC6OC(OC1C(O)C2O)C(O)C(O)C6O)C(O)C5O)C(O)C4O)C(O)C3O [ICG5, cyclo{→6)-α-D-glucopyranosyl-(1→4)-α-D-glucopyranosyl-(1→4)-α-D-glucopyranosyl-(1→4)-.α-D-glucopyranosyl-(1→4)α-D-glucopyranosyl-(1→}]
Degree of coloring ([1]; heating time 0 min): 0.00 A480 nm
Purity ([1]; heating time 0 min): 100%
Degree of coloring ([1]; heating time 30 min): 0.00 A480 nm
Purity ([1]; heating time 30 min): 100%
Degree of coloring ([1]; heating time 60 min): 0.00 A480 nm
Purity ([1]; heating time 60 min): 100%
Degree of coloring ([1]; heating time 90 min): 0.01 A480 nm
Purity ([1]; heating time 90 min): 100%
Thermal stability ([1]; aqueous solution heated to 120° C.): stable under the heating condition
Digestion [2]: 0%
Mortality ([3]; oral, highest possible dose): no mouse died
LD50 ([3]; orally administrated, though not so accurate): ≥ 5 g/kg-mouse weight
Hydrolysis ([4]; pH 2, 100° C. for 24 hours): completely hydrolyzed
Degree of coloring ([4]; pH 2.0, Acetate buffer): 0.00 A480 nm
Purity ([4]; pH 2.0, Acetate buffer): 0%
Hydrolysis ([4]; pH 3, 100° C. for 24 hours): ≥ 50
Degree of coloring ([4]; pH 3.0, Acetate buffer): 0.00 A480 nm
Purity ([4]; pH 3.0, Acetate buffer): 34.9%
Hydrolysis ([4]; pH 4, 100° C. for 24 hours): slightly hydrolyzed
Degree of coloring ([4]; pH 4.0, Acetate buffer): 0.00 A480 nm
Purity ([4]; pH 4.0, Acetate buffer): 89.9%
Degree of coloring ([4]; pH 5.0, Acetate buffer): 0.00 A480 nm
Purity ([4]; pH 5.0, Acetate buffer): 99.4%
Degree of coloring ([4]; pH 6.0, Acetate buffer): 0.00 A480 nm
Purity ([4]; pH 6.0, Acetate buffer): 100%
Degree of coloring ([4]; pH 7.0, Borate buffer): 0.00 A480 nm
Purity ([4]; pH 7.0, Borate buffer): 100%
Degree of coloring ([4]; pH 8.0, Ammonium buffer): 0.00 A480 nm
Purity ([4]; pH 8.0, Ammonium buffer): 100%
Degree of coloring ([4]; pH 9.0, Ammonium buffer): 0.01 A480 nm
Purity ([4]; pH 9.0, Ammonium buffer): 100%
Degree of coloring ([4]; pH 10.0, Ammonium buffer): 0.01 A480 nm
Purity ([4]; pH 10.0, Ammonium buffer): 99.6%
Hydrolysis ([4]; pH range of 5 to 10, 100° C. for 24 hours): substantially not hydrolyzed
Digestion [5]: 0.2%
Degree of coloring ([6]; heating time 0 min): 0.00 A480 nm
Degree of coloring ([6]; heating time 30 min): 0.02 A480 nm
Degree of coloring ([6]; heating time 60 min): 0.02 A480 nm
Degree of coloring ([6]; heating time 90 min): 0.02 A480 nm
Degree of coloring ([7]; heating time 0 min): 0.00 A480 nm
Degree of coloring ([7]; heating time 30 min): 0.00 A480 nm
Degree of coloring ([7]; heating time 60 min): 0.00 A480 nm
Degree of coloring ([7]; heating time 90 min): 0.00 A480 nm
Digestion [8]: 0%

— patent US8633005B2, “Isocyclomaltooligosaccharide(s), isocyclomaltooligosaccharide-forming enzyme, their preparation and uses” (Hayashibara Co., Ltd., priority 2004, dated 2014)
